{"source": "patent US10485789B2", "about": "“Compositions and methods for targeting receptors expressed in the gut” (Sensor Pharmaceuticals, Inc., priority 2014, dated 2019)", "origin": "cited, not measured here", "test_system": "DSS injury model", "details": "mice pretreated with antibiotics"}
{"compound": "O=C(O)c1cccnc1", "note": "[niacin]", "values": [{"measurement": "effect in the DSS injury model", "value": "dramatic effect"}]}
